# Test results reported in patent publication US20240317744A1, “Bicyclic Ureas As Kinase Inhibitors” (Incyte Corporation, priority 2023, published 2024).
# Legend:
# [1] = biological target: T1, pseudo-kinase domain (JH2, amino-acids 536-812) of human V617F mutant JAK2 (Homo sapiens, UniProt O60674, F794H/V617F/W659A/W777A); assay: JAK2 LanthaScreen JH2-V617F Binding Assay; conditions: JAK2 JH2-V617F 0.26 nM, 50 nM tracer, 1 hour at 25° C.; read-out: JH2 BIND V617F
# T1 construct: pseudo-kinase domain (JH2, amino-acids 536-812 with 3 surface mutations W659A, W777A, F794H); His (C); purchased BPS Bioscience 79498; host or cells: baculovirus expression system
# T1 sequence (O60674 536-812 V617F/W659A/W777A/F794H): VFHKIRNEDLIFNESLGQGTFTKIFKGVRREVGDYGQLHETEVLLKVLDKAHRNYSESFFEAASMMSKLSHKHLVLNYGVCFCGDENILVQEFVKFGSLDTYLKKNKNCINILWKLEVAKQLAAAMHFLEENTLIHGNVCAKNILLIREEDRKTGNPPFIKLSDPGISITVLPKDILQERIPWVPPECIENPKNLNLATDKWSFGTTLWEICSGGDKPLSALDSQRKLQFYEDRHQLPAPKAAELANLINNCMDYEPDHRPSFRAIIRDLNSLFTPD
# Method in brief: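 Competition of compounds with a fluorescent tracer (50 nM) for the biotinylated domain (0.26 nM), detected via streptavidin-Tb (0.25 nM) after 1 h at 25° C in pH 7.5 Tris buffer containing glycerol, BSA and Brij-35. ATP at 2 mM gave background. IC50 by four-parameter fit.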
# [2] = biological target: catalytic domain (JH1, amino acids 808-1132) of human JAK2 (Homo sapiens, UniProt O60674); assay: JAK2 HTRF Enzyme Activity Assay; type: biochemical; conditions: ATP 30 µM, 60 minutes at 25° C.; read-out: V617F ENZ 30 UM
# Sequence of catalytic domain (JH1, amino acids 808-1132) of human JAK2 (O60674 808-1132 limits assumed): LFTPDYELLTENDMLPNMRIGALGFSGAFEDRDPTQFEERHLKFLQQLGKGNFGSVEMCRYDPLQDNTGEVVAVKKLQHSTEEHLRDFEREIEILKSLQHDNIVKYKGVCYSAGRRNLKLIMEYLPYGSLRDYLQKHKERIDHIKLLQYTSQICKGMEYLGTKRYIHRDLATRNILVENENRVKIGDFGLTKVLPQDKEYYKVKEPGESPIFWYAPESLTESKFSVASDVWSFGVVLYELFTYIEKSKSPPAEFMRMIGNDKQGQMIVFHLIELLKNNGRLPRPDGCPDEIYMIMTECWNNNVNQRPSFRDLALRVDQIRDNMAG
# [3] = biological target: T2, catalytic domain (JH1, amino acids 826-1132) of human JAK2 (Homo sapiens, UniProt O60674); assay: JAK2 LanthaScreen JH1 Binding Assay; conditions: JAK2 JH1 1.5 nM, 50 nM tracer, 2 hours at 25° C.; read-out: JH1 BIND
# T2 construct: catalytic domain (JH1, amino acids 826-1132) of human JAK2; FLAG (N); biotin (biotinylated); purchased Carna Biosciences 08-445-20N; host or cells: baculovirus expression system
# T2 sequence (O60674 826-1132): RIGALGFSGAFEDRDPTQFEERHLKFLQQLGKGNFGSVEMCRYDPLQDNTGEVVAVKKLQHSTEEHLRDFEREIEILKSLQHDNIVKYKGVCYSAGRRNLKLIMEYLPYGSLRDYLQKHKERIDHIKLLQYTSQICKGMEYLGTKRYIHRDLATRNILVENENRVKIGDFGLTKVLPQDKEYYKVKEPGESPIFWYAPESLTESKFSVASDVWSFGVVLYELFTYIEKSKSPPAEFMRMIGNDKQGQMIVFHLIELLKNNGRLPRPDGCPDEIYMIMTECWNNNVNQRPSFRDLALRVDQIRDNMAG
# Method in brief: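 FLAG-tagged, biotinylated JAK2 JH1 (aa 826-1132, baculovirus-expressed; 1.5 nM) incubated 2 h at 25° C with compounds, 50 nM fluorescent tracer and 0.5 nM Streptavidin-Tb in Tris pH 7.5 buffer with MgCl2, Brij-35, BSA, EGTA, glycerol, DTT. Nonspecific binding defined with 2 mM ATP; TR-FRET IC50 from four-parameter fit.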
# [4] = biological target: T3, pseudo-kinase domain (JH2, amino-acids 536-812) of human Wild Type JAK2 (Homo sapiens, UniProt O60674, F794H/W659A/W777A); assay: JAK2 LanthaScreen JH2-WT Binding Assay; conditions: JAK2 JH2-WT 0.145 nM, 50 nM tracer, 1 hour at 25° C.; read-out: JH2 BIND WT
# T3 construct: pseudo-kinase domain (JH2, amino-acids 536-812 with 3 surface mutations W659A, W777A, F794H); His (C); purchased BPS Bioscience 79463; host or cells: baculovirus expression system
# T3 sequence (O60674 536-812 W659A/W777A/F794H): as the sequence (O60674 536-812 V617F/W659A/W777A/F794H) above, with F82V counted along it
# Method in brief: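 Binding was measured by TR-FRET between streptavidin-Tb (0.25 nM) on biotinylated JH2 (0.145 nM) and 50 nM fluorescent tracer, with compound dose series, 1 h at 25° C; IC50 fitted.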
Structure (SMILES),IC50 [1] [nM],IC50 [2] [nM],IC50 [3] [nM],IC50 [4] [nM]
"[2H]C([2H])([2H])n1c(=O)n([C@H]2CC[C@@](C)(NC(=O)C3CC3)CC2)c2cc(Nc3ccc4c(n3)c(-c3cnn(C(F)(F)F)c3)nn4CC(C)(C)O)ncc21 [Example 120, N-((1s,4s)-4-(6-((1-(2-Hydroxy-2-methylpropyl)-3-(1-(trifluoromethyl)-1H-pyrazol-4-yl)-1H-pyrazolo[4,3-b]pyridin-5-yl)amino)-3-(methyl-d3)-2-oxo-2,3-dihydro-1H-imidazo[4,5-c]pyridin-1-yl)-1-methylcyclohexyl)cyclopropanecarboxamide]",≤ 10,> 1000,> 1000,≤ 10
"[2H]C([2H])([2H])n1c(=O)n([C@@H]2CC[C@@H](NC(=O)OC)C2)c2cc(Nc3cc(C(=O)N4CCOCC4)c4cc(C)cc(C(F)(F)F)c4n3)ncc21 [Example 135, Methyl ((1R,3R)-3-(3-(methyl-d3)-6-((6-methyl-4-(morpholine-4-carbonyl)-8-(trifluoromethyl)quinolin-2-yl)amino)-2-oxo-2,3-dihydro-1H-imidazo[4,5-c]pyridin-1-yl)cyclopentyl)carbamate]",≤ 10,500 to 1000,> 1000,≤ 10
"[2H]C([2H])([2H])n1c(=O)n([C@@H]2CC[C@@H](NC(=O)OC)C2)c2cc(Nc3cc(C(C)(C)O)cc(-c4ncc(C(C)(C)O)s4)n3)ncc21 [Example 144, Methyl ((1R,3R)-3-(6-((4-(2-hydroxypropan-2-yl)-6-(5-(2-hydroxypropan-2-yl)thiazol-2-yl)pyridin-2-yl)amino)-3-(methyl-d3)-2-oxo-2,3-dihydro-1H-imidazo[4,5-c)pyridin-1-yl)cyclopentyl)carbamate]",≤ 10,> 1000,> 1000,≤ 10
"[2H]C([2H])([2H])n1c(=O)n([C@@H]2CC[C@@H](NC(=O)OC)C2)c2cc(Nc3cc(C(C)(C)O)cc(-c4ncc(C(O)(C(F)(F)F)C(F)(F)F)s4)n3)ncc21 [Example 145, Methyl ((1R,3R)-3-(6-((6-(5-(1,1,1,3,3,3-hexafluoro-2-hydroxypropan-2-yl)thiazol-2-yl)-4-(2-hydroxypropan-2-yl)pyridin-2-yl)amino)-3-(methyl-d3)-2-oxo-2,3-dihydro-1H-imidazo[4,5-c]pyridin-1-yl)cyclopentyl)carbamate]",≤ 10,> 1000,> 1000,≤ 10
"[2H]C([2H])([2H])n1c(=O)n([C@@H]2CC[C@@H](NC(=O)OC)C2)c2cc(Nc3cc(-c4cnccc4C(F)(F)F)cc(-c4ccc(C(F)F)s4)n3)ncc21 [Example 154, Methyl ((1R,3R)-3-(6-((6′-(5-(difluoromethyl)thiophen-2-yl)-4-(trifluoromethyl)-[3,4′-bipyridin]-2′-yl)amino)-3-(methyl-d3)-2-oxo-2,3-dihydro-1H-imidazo[4,5-c]pyridin-1-yl)cyclopentyl)carbamate]",≤ 10,> 1000,> 1000,≤ 10
"[2H]C([2H])([2H])n1c(=O)n([C@]2([2H])CC[C@@H](NC(=O)OC)C2)c2cc(Nc3cc(C(C)(C)O)cc(-c4ncc(C(F)(F)F)s4)n3)ncc21 [Example 156, Methyl ((1R,3R)-3-(6-((4-(2-hydroxypropan-2-yl)-6-(5-(trifluoromethyl)thiazol-2-yl)pyridin-2-yl)amino)-3-(methyl-d3)-2-oxo-2,3-dihydro-1H-imidazo[4,5-c]pyridin-1-yl)cyclopentyl-3-d)carbamate]",≤ 10,> 1000,> 1000,≤ 10
"[2H]C([2H])([2H])n1c(=O)n([C@@H]2CC[C@@H](NC(=O)OC)C2)c2cc(Nc3cc(C4CCN(C)CC4)cc(-c4ncc(C(F)(F)F)s4)n3)ncc21 [Example 157, Methyl ((1R,3R)-3-(3-(methyl-d3)-6-((4-(1-methylpiperidin-4-yl)-6-(5-(trifluoromethyl)thiazol-2-yl)pyridin-2-yl)amino)-2-oxo-2,3-dihydro-1H-imidazo[4,5-c]pyridin-1-yl)cyclopentyl)carbamate]",≤ 10,> 1000,> 1000,≤ 10
